# Experimental data from patent US5223488A, “Oxidized-type glutathione alkyl ester” (Senju Pharmaceutical Company, Ltd., priority 1990, dated 1993).
# Like-named read-outs stand apart in the source and are kept apart here.
# System: acetaminophen-induced liver disorder
# Assay: Suppressive effect on acetaminophen-induced liver disorder in the rat (s-GOT, s-GPT)
# Assay type: in vivo
# Conditions: for inhibition at 102 mg/kg: Rattus norvegicus; for inhibition at 102 mg/kg / inhibition rate of s-GOT / inhibition rate of s-GPT: versus 5% gum arabic control; for s-GOT / s-GPT: male Wistar rats, blood 24 h later, mean ± S.E. (n=4-8)
# Method: Male Wistar rats with a body weight of about 180 g were fasted for 24 hours and orally administered, through a cannula for oral administration, 87-349 mg of oxidized-type glutathione isopropyl ester (hereinafter also referred to as "GSSG isopropyl"), which is one of the compounds of the present invention, 102 mg of reduced-type glutathione isopropyl ester 1/2 H2 SO4.1/2H2 O (87 mg as reduced type glutathione isopropyl ester (hereinafter also referred to as "GSH isopropyl")) or 5% gum arabic solution as a control, respectively. 1 hour later, 400 mg/kg of acetaminophen, a compound which may induce disorders in the liver, was intra peritoneally administered. 24 hours later, the rats were anesthetized with pentobarbital and the blood was collected from the abdominal aorta, and s-GOT and s-GPT were measured to compare the hepatic disorder suppressing effect of GSSG isopropyl with that of GSH isopropyl.
# [1] = 102 mg/kg [0.25 mmol/kg] oral 1 h before acetaminophen 400 mg/kg i.p.
# [2] = 87 mg/kg [0.125 mmol/kg] oral 1 h before acetaminophen 400 mg/kg i.p.
# [3] = 174 mg/kg [0.25 mmol/kg] oral 1 h before acetaminophen 400 mg/kg i.p.
# [4] = 349 mg/kg [0.5 mmol/kg] oral 1 h before acetaminophen 400 mg/kg i.p.
Molecule,"elevation of s-GOT and s-GPT (102 mg/kg oral, acetaminophen-treated rats)","inhibition at 102 mg/kg (102 mg/kg oral, read-out: inhibition rate of s-GOT) [%]","inhibition at 102 mg/kg (102 mg/kg oral, read-out: inhibition rate of s-GPT) [%]",s-GOT [1] [IU/1],s-GPT [1] [IU/1],"hepatic disorder suppressing effect compared with 102 mg/kg of GSH isopropyl sulfate (87 mg/kg oral, acetaminophen-treated rats)",inhibition rate of s-GOT (87 mg/kg oral),inhibition rate of s-GPT (87 mg/kg oral),inhibition rate of s-GOT (174 mg/kg oral),inhibition rate of s-GPT (174 mg/kg oral),inhibition rate of s-GOT (349 mg/kg oral),inhibition rate of s-GPT (349 mg/kg oral),"elevation of s-GOT and s-GPT (87-349 mg/kg oral, acetaminophen-treated rats)",s-GOT [2] [IU/1],s-GPT [2] [IU/1],s-GOT [3] [IU/1],s-GPT [3] [IU/1],s-GOT [4] [IU/1],s-GPT [4] [IU/1]
"CC(C)OC(=O)CNC(=O)[C@H](CS)NC(=O)CC[C@H](N)C(=O)O.O=S(=O)(O)O [GSH isopropyl sulfate, γ-L-glutamyl-L-cysteinylglycine isopropyl ester sulfate, reference compound]",significantly suppresses,94.5,94.4,475 ± 156,253 ± 97,–,–,–,–,–,–,–,–,–,–,–,–,–,–
γ-L-GLUTAMYL-L-CYSTEI[…] ESTER DISULFIDE [GSSG isopropyl],–,–,–,–,–,almost equivalent,95.0,94.9,95.9,96.6,98.6,99.1,significantly suppressed dose-dependently,430 ± 236,231 ± 152,352 ± 104,154 ± 46,119 ± 11,39 ± 3
